Square brackets hold non-standard residues; d marks the D form. Peptide text beside a SMILES is read from it. * marks the point of attachment. Dolaproine = CO[C@@H]([C@@H]1CCCN1)[C@@H](C)C(=O)O; Dil = CC[C@H](C)[C@H](NC)[C@@H](CC(=O)O)OC; X1 = C[C@@H](N*)[C@@H](O)c1ccccc1; NMeV = CN[C@H](C(=O)O)C(C)C
Tests used:
[1] = EV-203 pharmacokinetics of ADC, TAb and free MMAE in serum or plasma; assay type: in vivo, human; conditions: for Time of peak free MMAE concentration postinfusion: after end of enfortumab vedotin infusion
Method: In the PK cohort (i.e., PK analysis set), intensive PK sampling was performed wherein blood samples for analysis of ADC, total antibody (TAb), and free (unconjugated) MMAE were collected at prespecified time points. […] Blood samples for antitherapeutic antibodies (ATAs) were collected predose on Day 1 of cycles 1 to 4, 6, 8, 10, and within 30–37 days after the last study dose. Validated assays were used to measure concentrations of ADC, TAb, and free MMAE in serum or plasma and to assess ATA levels.
All patients who received any amount of study drug were included in the primary analyses of efficacy endpoints and safety analyses. The PK analyses included data from patients in the PK cohort who received at least 3 of 4 doses of the study drug through cycle 2 Day 1 and had at least five blood samples collected and assayed for measurements of ADC, TAb, or free MMAE concentrations to determine at least one PK parameter.

[2] = system: patients with HER2-positive (IHC2+ or 3+) unresectable locally advanced or mUC; parameters: method as in earlier work; conditions: pooled two phase 2 studies, combined N = 107; 95% CI 40.6%–60.3%; cited from earlier work
[3] = cycle 1 Day 1, Non-PK cohort, mean (SD)
[4] = cycle 1 Day 1, PK cohort, mean (SD)
[5] = cycle 1 Day 8, Non-PK cohort, mean (SD)
[6] = cycle 1 Day 8, PK cohort, mean (SD)
[7] = cycle 1 Day 15, Non-PK cohort, mean (SD)
[8] = cycle 1 Day 15, PK cohort, mean (SD)
[9] = plasma, Cycle 1 Day 15, third to first dose, mean (SD)

CC[C@H](C)[C@@H]([C@@H](CC(=O)N1CCC[C@H]1[C@H](OC)[C@@H](C)C(=O)N[C@H](C)[C@@H](O)c1ccccc1)OC)N(C)C(=O)[C@@H](NC(=O)[C@@H](NC)C(C)C)C(C)C [Free MMAE, monomethyl auristatin E] (H-[NMeV]V[Dil][Dolaproine]-X1)
Plasma concentration at end of infusion [1, 3]: 376 (241) [23] pg/mL | Plasma concentration at end of infusion [1, 4]: 357 (154) [13] pg/mL | Plasma concentration at end of infusion [1, 5]: 2720 (1490) [17] pg/mL | Plasma concentration at end of infusion [1, 6]: 1680 (1290) [12] pg/mL | Plasma concentration at end of infusion [1, 7]: 3350 (2600) [11] pg/mL | Plasma concentration at end of infusion [1, 8]: 2110 (1680) [10] pg/mL | Median t max (range) ([1]; plasma, Cycle 1 Day 1): 2.00 (1.87–2.93) days | AUC0–7d ([1]; plasma, Cycle 1 Day 1, after enfortumab vedotin 1.25 mg/kg IV, mean (SD)): 16.9 (9.2) day ng/mL | C max ([1]; plasma, Cycle 1 Day 1, mean (SD)): 3.3 (1.74) ng/mL | Median t max (range) ([1]; plasma, Cycle 1 Day 15): 1.93 (0.86–2.92) days | AUC0–7d ([1]; plasma, Cycle 1 Day 15, after enfortumab vedotin 1.25 mg/kg IV, mean (SD)): 23.3 (16.4) day ng/mL | C max ([1]; plasma, Cycle 1 Day 15, mean (SD)): 4.5 (3.58) ng/mL | R ac (AUC0–7d), accumulation ratio [1, 9]: 1.32 (0.486) | R ac (Cmax), accumulation ratio [1, 9]: 1.28 (0.499) | Time of peak free MMAE concentration postinfusion ([1]; plasma, listed as MMAE): approximately 2 days | Time of peak free MMAE concentration postinfusion ([1]; plasma, listed as free MMAE): 2 to 3 days | Mean accumulation ratios (third to first dose) for maximum concentration and AUC0–7d ([1]; range over ADC, TAb and free MMAE, repeat dosing): 1.03 to 1.32

TAb: total antibody analyte measured in serum after enfortumab vedotin dosing
Serum concentration at end of infusion [1, 3]: 29,100 (5050) [23] ng/mL | Serum concentration at end of infusion [1, 4]: 30,800 (5730) [13] ng/mL | Serum concentration at end of infusion [1, 5]: 29,900 (5450) [17] ng/mL | Serum concentration at end of infusion [1, 6]: 34,300 (6640) [12] ng/mL | Serum concentration at end of infusion [1, 7]: 27,600 (6210) [11] ng/mL | Serum concentration at end of infusion [1, 8]: 33,600 (5450) [10] ng/mL | AUC0–7d ([1]; serum, Cycle 1 Day 1, PK cohort, 1.25 mg/kg IV, mean (SD)): 77.4 (17.3) day μg/mL | C max ([1]; serum, Cycle 1 Day 1, PK cohort, mean (SD)): 31.7 (5.73) μg/mL | AUC0–7d ([1]; serum, Cycle 1 Day 15, PK cohort, 1.25 mg/kg IV, mean (SD)): 94.7 (15.7) day μg/mL | C max ([1]; serum, Cycle 1 Day 15, PK cohort, mean (SD)): 34.4 (4.64) μg/mL | Time of peak serum concentration ([1]; serum, PK cohort cycle 1): at the end of the enfortumab vedotin infusion

B1: disitamab vedotin (conjugate, chains of the INN, looked up)
VH: EVQLVQSGAEVKKPGATVKISCKVSGYTFTDYYIHWVQQAPGKGLEWMGRVNPDHGDSYYNQKFKDKATITADKSTDTAYMELSSLRSEDTAVYFCARNYLFDHWGQGTLVTVSS
VL: DIQMTQSPSSVSASVGDRVTITCKASQDVGTAVAWYQQKPGKAPKLLIYWASIRHTGVPSRFSGSGSGTDFTLTISSLQPEDFATYYCHQFATYTFGGGTKVEIK
modifications: vedotin (MMAE) payload
ORR [2]: 50.5%
